3 substances from US20030224983A1, “Stimulation of beta cell proliferation” (priority 1998, published 2003) can be followed below.

Experiment [1] has as its system male Zucker Diabetic Fatty fa/fa (ZDF) rat. The experiment can be described thus: oral glucose tolerance test in ZDF rats. It counts as in vivo. The note with it: group C, 150 μg/kg bi-daily, after 36 days; 11-hour fast, 1 g/kg glucose by oral gavage; total AUC, p<0.0002 by ANOVA. An excerpt:
(§1) The male Zucker Diabetic Fatty fa/fa (ZDF) rat is a model of Type 2 diabetes. The rats are insulin resistant but normoglycemic from birth and they develop diabetes from about week 7 to week 10 of age. During the transitional period, the animals go through a state of impaired glucose tolerance. Although the animals are hyperinsulinemic before diabetes onset and during the early stages of diabetes, they later lose glucose-stimulated insulin secretion and finally become almost completely insulinopenic.
(§2) We have studied the effects of Arg^34, Lys^26(N-ε-(γ-Glu(N-α-hexadecanoyl)))-GLP-1(7-37) therapy during a period of time when the animals would normally progress from having impaired glucose tolerance to having overt Type 2 diabetes. Three groups of male ZDF rats (Genetic Models Inc, Indianapolis, Ind., U.S.A.) were studied and dosed subcutaneously bi-daily with either vehicle (group A), 30 (group B) or 150 μg/kg (group C) of Arg^34, Lys^26(N-ε-(γ-Glu(N-α-hexadecanoyl)))-GLP-1(7-37), n=6 per group. Animals were between 7 and 8 weeks old when dosing was initiated, and fed glucose levels were not different between the groups before dosing began. […] After 36 days of dosing, an oral glucose tolerance test was performed in the animals after an 11-hour fast. One g/kg of glucose was administered by oral gavage and subsequent measurements of blood glucose and plasma insulin were made.

In experiment [2] the test system is beta-cells of ZDF rats. The experiment can be described thus: beta-cell proliferation rate in vivo, BrDU and insulin double staining of pancreas sections. The arrangement: species or system rat. To be noted: 30 and 150 μg/kg bi-daily, 100 mg BrDU/kg i.p. six hours before sacrifice. As to the method:
(§3) The rat experiment described in example 2 were examined for effects of Arg^34, Lys^26(N-ε-(γ-Glu(N-α-hexadecanoyl)))-GLP-1(7-37) (named GLP-1 in FIG. 3 and 4) on beta-cell growth and neogenesis.
Bromodeoxyuridine (BrDU) is incorporated in newly synthesized DNA and thus will label replicating cells. Six hours before sacrifice the rats were given an injection of 100 mg BrDU/kg intraperitoneally. After sacrifice the pancreata were fixed in 4% PFA, dehydrated, embedded in paraffin, and […] sections double stained for BrDU and insulin for the measurement of beta-cell proliferation rate.
Insulin was stained with guinea pig anti-insulin, peroxidase-coupled rabbit anti-guinea pig Ig, and developed with AEC to give a red stain. BrDU was stained by monoclonal mouse anti-BrDU, biotinylated goat anti-mouse Ig, avidin peroxidase, and developed with DAB and CuSO4 to give a dark brown stain. BrDU stained nuclei of cells with insulin stained cytoplasm was examined in more than 1500 cells per section. The examination of the sections were carried out with the origin of the sections blinded to the observer.

The test system of experiment [3] is beta-cells of ZDF rats. In words: relative mass of islet beta-cells, point counting stereologic techniques. It counts as in vivo, rat.
Source text: as §3
Neighbor sections were stained for insulin and the combination of glucagon-somatostatin-pancreatic polypeptide for the measurement of the relative mass of islet beta-cells and nonbeta-cells. The beta-cells were stained for insulin as described above. The nonbeta-cells were stained with a mixture of monoclonal mouse anti-glucagon+rabbit anti-somatostatin+rabbit anti-pancreatic polypeptide, detected by biotinylated swine anti-multible Ig's, avidin peroxidase, and developed with DAB and CuSO4 to give a dark brown stain. The volume fractions of beta- and nonbeta-cells were estimated by point counting stereologic techniques.

In experiment [4] the test system is male Zucker Diabetic Fatty fa/fa (ZDF) rat. In words: blood glucose during a normal 24-hour feeding schedule in ZDF rats. It counts as in vivo.
Source text: as §1, §2

Experiment [5] concerns beta cells (insulin positive cells in pancreatic islet cells from newborn rats). In words: beta cell proliferation in vitro, BrdU incorporation in insulin positive islet cells. The note with it: for number of labelled beta cells: then 10 μM BrdU for 90 min, absence of hormones 0.6%. It counts as cell-based, rat. An excerpt: Diabetes is characterized by insufficiency of the pancreatic beta cells to maintain normoglycemia. In type 1 diabetes (IDDM) this is due to destruction of the beta cells by an autoimmune process whereas in type 2 diabetes (NIDDM) it is due to a combination of beta cell deficiency and peripheral insulin resistance. […] However in diabetic patients the number of beta cells is reduced and it is therefore pertinent not only to improve the function of the beta cells by therapeutical means but also to increase the number of beta cells. […] In our efforts to identify beta cell growth factors we discovered that GLP-1 indeed could stimulate beta cell proliferation in vitro. The proliferation was measured as incorporation of the thymidine analogue 5-bromo-2-deoxyuridine into DNA in insulin positive cells in pancreatic islet cells from newborn rats. […] This may have important implication for the treatment and/or prevention of diabetes.
The protocol was a slight modification of the procedure described by Billestrup and Nielsen (Billestrup N, Nielsen J H: The stimulatory effect of growth hormone, prolactin, and placental lactogen on beta cell proliferation is not mediated by insulin-like growth factor-I. Endocrinology 1991; 129:883-888.). Pancreatic islets were isolated from newborn rats by the collagenase method and cultured for 2-5 days before use. 2000 islets were transfered to 15 ml plastic tubes and washed once with Ca/Mg-free Hank's balanced salt solution. 500 μl cold trypsin solution (0.05% trypsin, 0.53 mM EDTA in Ca/Mg-free Hank's solution). The islets were dispersed by aspiration with a pipette. 5 ml culture medium RPMI 1640 with 2% human serum was added. 75,000 islet cells were then placed in tissue culture flasks previously coated with ECL cell attachment matrix (Upstate Biotechnology) with 2 ml culture medium with 1 μg/ml human growth hormone (hGH) (Norditropin, Novo Nordisk). After 7 days in culture at 37C the medium was replaced with culture medium without hGH or with addition of 100 nM GLP-1, 5 μM Arg^34, Lys^26(N-ε-(γ-Glu(N-α-hexadecanoyl)))-GLP-1(7-37) or 200 ng/ml hGH. After 2 days in culture 10 μM 5-bromo-2-deoxyuridine (BrdU) was added and after 90 min the medium was removed and the cells fixed in 1% paraformaldehyde in 0.1 M phosphate buffer. The cells were then stained with antibodies to BrdU and insulin as described (Billestrup and Nielsen, 1991). The number of labelled beta cells in the absence of hormones was 0.6% and in the presence of hGH 3.5%. In the presence of GLP-1 the number was 1.7% and in the presence of Arg^34, Lys^26(N-ε-(γ-Glu(N-α-hexadecanoyl)))-GLP-1(7-37) 1.4%.
On the technique in general: Uptake of a labelled nucleoside into DNA is a usual measure of proliferation.

As to “Arg^34, Lys^26(N-ε-(γ-Glu(N-α-hexadecanoyl)))-GLP-1(7-37)”, the “glycemic level in oral glucose tolerance test, compared to groups A and B” value in experiment [1] is “significantly lower”. The “fraction of beta-cells that had incorporated BrDU” value in experiment [2] is reported as “dose dependent increase”. The “beta-cell fraction of the total pancreas, compared to vehicle treated rats” value in experiment [3] (30 ng/g for 6 weeks) is reported as “significantly higher”. Besides, in experiment [3] (150 ng/g, compared to 30 ng/g), the “beta-cell fraction of the total pancreas” value is on record as “no further increase”. For the same substance, in experiment [4] (group B (low dose), 30 μg/kg subcutaneously bi-daily, after 10 days of dosing), the “blood glucose levels during a normal 24-hour feeding schedule” value is reported as “hyperglycemic”. Further, in experiment [4] (group C, 150 μg/kg subcutaneously bi-daily, after 10 days of dosing), the “blood glucose levels during a normal 24-hour feeding schedule, compared to initial measurements” value was “unchanged compared to the initial measurements”. The “blood glucose levels during a normal 24-hour feeding schedule, compared to vehicle- and low-dose-treated animals” value in experiment [4] (group C, 150 μg/kg subcutaneously bi-daily, after 10 days, total area under the curve, p<0.0002 by ANOVA) is given as “significantly lower”. Moreover, in experiment [5] (5 μM, 2 days in culture), the “number of labelled beta cells” value is 1.4%.
“GLP-1: The term GLP-1 means GLP-1(7-37) or GLP-1(7-36) amide [reference compound]”: the “number of labelled beta cells” value in experiment [5] (100 nM GLP-1, 2 days in culture) came out at 1.7%. In addition, the “number of labelled beta cells (in words)” value in experiment [5] (BrdU incorporation into DNA in insulin positive cells, newborn rat islet cells) is recorded as “increase the number of labelled beta cells”.
Take “hGH: human growth hormone (hGH) (Norditropin, Novo Nordisk)”: the “number of labelled beta cells” value in experiment [5] (200 ng/ml hGH, 2 days in culture) came out at 3.5%.
